According to patent US20240335541A1, “NANOMATERIALS COMPRISING DIAMINES” (Beam Therapeutics Inc., priority 2021, published 2024):

Key:
Type in all cases: physicochemical
[1] = LNP encapsulation efficiency by Ribogreen assay (Example 16 LNPs); conditions: Example 16 LNPs: 47.5% Ionizable Lipid: 40% cholesterol: 2.5% PEG-2000 DMG: 10% DPSC, N/P 4-8
Procedure: (§1) LNPs were prepared with 47.5% Ionizable Lipid (e.g., a compound provided herein): 40% cholesterol: 2.5% PEG-2000 DMG: 10% DPSC and an N/P ratio range of 4-8. LNPs were formed by microfluidic mixing of the lipid and NA solutions using a Precision Nanosystems NanoAssemblr Spark or Benchtop series Instruments, according to the manufacturer's protocol. A ratio of aqueous to organic solvent of approximately 2:1 or 3:1 was maintained during mixing using differential flow rates. After mixing, LNPs were collected, diluted in phosphate buffer saline (PBS) or Tris-buffered saline (TBS) (approximately 1:1 v/v). Further buffer exchange was conducted using dialysis in PBS or TBS at 4° C. for 4 to 24 hours against a 20 kDa filter. After this initial dialysis, each individual LNP preparation was characterized via dynamic light scattering (DLS) to measure the size (e.g., diameter) and polydispersity. LNPs falling within specific diameter and polydispersity ranges were pooled, and further dialyzed against PBS or TBS at 4° C. for 1 to 4 hours against a 100 kDa dialysis cassette. After the second dialysis, LNPs were sterile filtered using 0.22 μm filter and stored at 4° C. for further use.
RNA concentration and encapsulation efficiency were determined by Ribogreen assay (BioTek Synergy LX plate reader).

[2] = LNP hydrodynamic diameter and PDI by DLS (Example 16 LNPs, Stunner); conditions: Example 16 LNPs: 47.5% Ionizable Lipid: 40% cholesterol: 2.5% PEG-2000 DMG: 10% DPSC, N/P 4-8
Procedure: as §1
LNP hydrodynamic diameter and polydispersity index (PDI) were measured using high throughput dynamic light scattering (DLS) (Stunner, Unchained Labs). LNPs were diluted 1×TBS or PBS to an appropriate concentration and analyzed.

[3] = LNP hydrodynamic diameter and polydispersity by DLS (Example 1 LNPs); conditions: LNPs prepared according to Example 1, total lipid to NA mass ratio 11.7
Procedure: LNPs were prepared with a total lipid to NA mass ratio of 11.7. LNPs were formed by microfluidic mixing of the lipid and NA solutions using a Precision Nanosystems NanoAssemblr Spark or Benchtop series Instruments, according to the manufacturers protocol. A ratio of aqueous to organic solvent of approximately 2:1 or 3:1 was maintained during mixing using differential flow rates. After mixing, LNPs were collected, diluted in PBS (approximately 1:1 v/v). Further buffer exchange was conducted using dialysis in PBS at 4° C. for 4 to 24 hours against a 20 kDa filter. After this initial dialysis, each individual LNP preparation was characterized via dynamic light scattering (DLS) to measure the size (e.g., diameter) and polydispersity. In addition, pKa of a subpopulation of LNPs was measured via a 2-(p-toluidino)-6-napthalene sulfonic acid (TNS) assay. LNPs falling within specific diameter and polydispersity ranges are pooled, and further dialyzed against phosphate buffer saline (PBS) at 4° C. for 1 to 4 hours against a 100 kDa dialysis cassette. After the second dialysis, LNPs were sterile filtered using […] filter and stored at 4° C. for further use.
DLS-LNP hydrodynamic diameter and polydispersity index (PDI) were measured using high throughput dynamic light scattering (DLS) (DynaPro plate reader II, Wyatt). LNPs were diluted 1×PBS to an appropriate concentration and analyzed.
Lipid nanoparticle components were dissolved in 100% ethanol at specified lipid component molar ratios. Nucleic acid (NA) cargo was dissolved in 10 mM citrate, 100 mM NaCl, pH 4.0, resulting in a concentration of NA cargo of approximately 0.22 mg/mL. In some embodiments, NA cargos included both a functional NA and a reporter DNA barcode mixed at mass ratios of 1:10 to 10:1 functional NA to barcode. LNPs were formulated with a total lipid to NA mass ratio of 11.7. LNPs were formed by microfluidic mixing of the lipid and NA solutions using a Precision Nanosystems NanoAssemblr Spark or Benchtop series Instruments, according to the manufacturer's protocol. A 2:1 or 3:1 ratio of aqueous to organic solvent was maintained during mixing using differential flow rates. After mixing, LNPs were collected, diluted in PBS (approximately 1:1 v/v), and further buffer exchange was conducted using dialysis in PBS at 4° C. for 8 to 24 hours against a 20 kDa filter. After this initial dialysis, each individual LNP formulation was characterized via DLS to measure the size and polydispersity, and the pKa of a subpopulation of LNPs is measured via TNS assay. After dialysis, LNPs were sterile filtered using 0.22 micron sterile filter and stored at 4° C. for further use.
LNP hydrodynamic diameter and polydispersity index (PDI) were measured using high throughput dynamic light scattering (DLS) (DynaPro plate reader II, Wyatt). LNPs were diluted 1×PBS to an appropriate concentration and analyzed.

[4] = LNP encapsulation efficiency, unlysed vs lysed LNPs, Qubit kit (Example 1 LNPs); conditions: LNPs prepared according to Example 1; total lipid to NA mass ratio 11.7
Procedure: Concentration of NA was determined by Qubit microRNA kit (for siRNA) or HS RNA kit (for mRNA) per manufacturer's instructions. Encapsulation efficiency was determined by measuring nucleic acid concentration in unlysed and lysed LNPs. Encapsulation efficiency was determined by measuring unlysed and lysed LNPs.

Structure (SMILES)	Mean Encapsulation Efficiency [1]	Mean Diameter [2]	Mean PDI [2]	Mean Diameter [3]	Mean PDI [3]	Mean Encapsulation Efficiency [4]
CC/C=C\CCCCOC(CCC(=O)OCCCCCCN(CCO)CCCN(CCCCCCOC(=O)CCC(OCCCC/C=C\CC)OCCCC/C=C\CC)CCCCCCOC(=O)CCC(OCCCC/C=C\CC)OCCCC/C=C\CC)OCCCC/C=C\CC [Example 7-1]	80.8%	90.2 nm	0.12	–	–	–
CC/C=C\CCCCOC(CCC(=O)OCCCCCCN(CCCCCCOC(=O)CCC(OCCCC/C=C\CC)OCCCC/C=C\CC)CCCN(CCO)CCCCCCCC(=O)OCCCCCCCCC)OCCCC/C=C\CC [Example 7-3, ((3-((2-hydroxyethyl)(8-(nonyloxy)-8-oxooctyl)amino)propyl)azanediyl)bis(hexane-6,1-diyl) bis(4,4-bis(((Z)-oct-5-en-1-yl)oxy)butanoate)]	85.1%	69.1 nm	0.13	–	–	–
CC/C=C\CCCCOC(CCC(=O)OCCCCCCCN(CCCCCCCOC(=O)CCC(OCCCC/C=C\CC)OCCCC/C=C\CC)CCCN(CCO)CCCCCCCC(=O)OCCCCCCCCC)OCCCC/C=C\CC [Example 7-4, ((3-((2-hydroxyethyl)(8-(nonyloxy)-8-oxooctyl)amino)propyl)azanediyl)bis(heptane-7,1-diyl) bis(4,4-bis(((Z)-oct-5-en-1-yl)oxy)butanoate)]	66.1%	95.1 nm	0.10	106.9 nm	15.4%	97.5%
CC/C=C\CCCCOC(CCC(=O)OCCCCCCN(CCO)CCCN(CCCCCC(=O)OCCCCCCCCC)CCCCCC(=O)OCCCCCCCCC)OCCCC/C=C\CC [Example 7-5, dinonyl 6,6′-((3-((6-((4,4-bis(((Z)-oct-5-en-1-yl)oxy)butanoyl)oxy)hexyl)(2-hydroxyethyl)amino)propyl)azanediyl)dihexanoate]	49.0%	81.3 nm	0.12	–	–	–
CC/C=C\CCCCOC(CCC(=O)OCCCCCCN(CCO)CCCN(CCCCCCCC(=O)OCCCCCCCCC)CCCCCCCC(=O)OCCCCCCCCC)OCCCC/C=C\CC [Example 7-6]	46.0%	85.7 nm	0.10	–	–	–
CC/C=C\CCCCOC(CCC(=O)OCCCCCCN(CCO)CCCN(CCCCCCOC(=O)C(CCCC)CCCCCC)CCCCCCOC(=O)C(CCCC)CCCCCC)OCCCC/C=C\CC (stereo not drawn) [Example 7-7]	57.4%	83.4 nm	0.08	–	–	–
CC/C=C\CCCCOC(CCC(=O)OCCCCCCCN(CCO)CCCN(CCCCCCOC(=O)C(CCCC)CCCCCC)CCCCCCOC(=O)C(CCCC)CCCCCC)OCCCC/C=C\CC (stereo not drawn) [Example 7-9]	69.4%	89.2 nm	0.11	–	–	–
CC/C=C\CCCCOC(CCC(=O)OCCCCCCCN(CCO)CCN(CCCCCCCOC(=O)CCC(OCCCC/C=C\CC)OCCCC/C=C\CC)CCCCCCCOC(=O)CCC(OCCCC/C=C\CC)OCCCC/C=C\CC)OCCCC/C=C\CC [Example 7-11]	–	–	–	79.8 nm	9.4%	96.4%
CC/C=C\CCCCOC(CCC(=O)OCCCCCCN(CCCO)CCN(CCCCCCOC(=O)CCC(OCCCC/C=C\CC)OCCCC/C=C\CC)CCCCCCOC(=O)CCC(OCCCC/C=C\CC)OCCCC/C=C\CC)OCCCC/C=C\CC [Example 7-16]	81.8%	91.3 nm	0.11	–	–	–
CC/C=C\CCCCOC(CCC(=O)OCCCCCCCN(CCCO)CCN(CCCCCCCOC(=O)CCC(OCCCC/C=C\CC)OCCCC/C=C\CC)CCCCCCCOC(=O)CCC(OCCCC/C=C\CC)OCCCC/C=C\CC)OCCCC/C=C\CC [Example 7-17]	–	–	–	85.9 nm	10.8%	97.2%
CC/C=C\CCCCOC(CCC(=O)OCCCCCCN(CCCO)CCN(CCCCCCCCCOC(=O)C(CCCC)CCCCCC)CCCCCCCCCOC(=O)C(CCCC)CCCCCC)OCCCC/C=C\CC (stereo not drawn) [Example 7-21]	60.9%	87.1 nm	0.12	–	–	–
CC/C=C\CCCCOC(CCC(=O)OCCCCCCCN(CCCO)CCN(CCCCCCCCCOC(=O)C(CCCC)CCCCCC)CCCCCCCCCOC(=O)C(CCCC)CCCCCC)OCCCC/C=C\CC (stereo not drawn) [Example 7-27]	63.3%	81.7 nm	0.11	–	–	–

More lines, now with the values ahead:

Mean Encapsulation Efficiency [1]	Mean Diameter [2]	Mean PDI [2]	Mean Diameter [3]	Mean PDI [3]	Mean Encapsulation Efficiency [4]	Structure (SMILES)
71.4%	97.0 nm	0.17	–	–	–	CC/C=C\CCCCOC(CCC(=O)OCCCCCCN(CCCO)CCN(CCCCCCOC(=O)C(CCCC)CCCCCC)CCCCCCOC(=O)C(CCCC)CCCCCC)OCCCC/C=C\CC (stereo not drawn) [Example 7-20]
72.4%	92.7 nm	0.12	–	–	–	CC/C=C\CCCCOC(CCC(=O)OCCCCCCCN(CCCCCCCOC(=O)CCC(OCCCC/C=C\CC)OCCCC/C=C\CC)CCCN(CCO)CCCCCCCCCOC(=O)C(CCCC)CCCCCC)OCCCC/C=C\CC (stereo not drawn) [Example 7-24, ((3-((9-((2-butyloctanoyl)oxy)nonyl)(2-hydroxyethyl)amino)propyl)azanediyl)bis(heptane-7,1-diyl) bis(4,4-bis(((Z)-oct-5-en-1-yl)oxy)butanoate)]
62.8%	92.4 nm	0.13	–	–	–	CC/C=C\CCCCOC(CCC(=O)OCCCCCCCN(CCO)CCCN(CCCCCCCCCOC(=O)C(CCCC)CCCCCC)CCCCCCCCCOC(=O)C(CCCC)CCCCCC)OCCCC/C=C\CC (stereo not drawn) [Example 7-25]
69.2%	82.5 nm	0.12	–	–	–	CC/C=C\CCCCOC(CCC(=O)OCCCCCCCN(CCCCCCCOC(=O)CCC(OCCCC/C=C\CC)OCCCC/C=C\CC)CCN(CCO)CCCCCCCCCOC(=O)C(CCCC)CCCCCC)OCCCC/C=C\CC (stereo not drawn) [Example 7-26, ((2-((9-((2-butyloctanoyl)oxy)nonyl)(2-hydroxyethyl)amino)ethyl)azanediyl)bis(heptane-7,1-diyl) bis(4,4-bis(((Z)-oct-5-en-1-yl)oxy)butanoate)]
49.6%	98.8 nm	0.11	–	–	–	CC/C=C\CCCCOC(CCC(=O)OCCCCCCCN(CCCCCCCOC(=O)CCC(OCCCC/C=C\CC)OCCCC/C=C\CC)CCCN(CCCO)CCCCCCCC(=O)OCCCCCCCCC)OCCCC/C=C\CC [Example 7-28, ((3-((3-hydroxypropyl)(8-(nonyloxy)-8-oxooctyl)amino)propyl)azanediyl)bis(heptane-7,1-diyl) bis(4,4-bis(((Z)-oct-5-en-1-yl)oxy)butanoate)]
83.2%	95.4 nm	0.13	–	–	–	CC/C=C\CCCCOC(CCC(=O)OCCCCCCCN(CCCO)CCCN(CCCCCCCOC(=O)CCC(OCCCC/C=C\CC)OCCCC/C=C\CC)CCCCCCCOC(=O)CCC(OCCCC/C=C\CC)OCCCC/C=C\CC)OCCCC/C=C\CC [Example 7-29]
